Measured values published in PMC6978316, “Development of chimeric peptides to facilitate the neutralisation of lipopolysaccharides during bactericidal targeting of multidrug-resistant Escherichia coli” (Communications Biology, 2020).
Read-outs that look alike come from different tables or passages of the source. Where a SMILES comes first, the peptide text is derived from it. Bridges are numbered along the chain shown (N, C = ends). Where no end group is shown, it is not given here.

Legend:
tested bacterial strains = experiment: MIC, range over all tested strains (peer review file); assay type: cell-based; conditions: manuscript lines quoted in the peer review file
Method: The MIC values of A6, G6, the parental peptides (N6 and LBP14), LBPN6, scramble controls (N6CK, A6CK, and G6CK), and PMB were determined by the microtiter broth dilution method. The tested strains included Gram-negative bacteria, Gram-positive bacteria, and fungi and were cultured to the logarithmic growth phase, diluted to 10^5 CFU per ml, and added into 96-well plates (90 μl per well). Peptides or antibiotic were diluted with PBS by 2-fold dilution and were added to each well (10 μl per well). Polymyxin B (PMB) and PBS were used as the positive and negative control, respectively. […] All experiments were repeated three times.

E. coli LPS = experiment: BODIPY-TR-cadaverine (BC) displacement assay; assay type: binding, Escherichia coli; design: BC displacement from LPS, Mean: unit not given here; conditions: for BC displacement from LPS, Mean: mean of n = 3
Method: The affinity of SCPs (A6, G6, and N6) to E. coli LPS was detected by the fluorescent BC probe. The binding of fluorescent probe with LPS can cause fluorescence quenching. When peptides bind to LPS, BC probe can be replaced, which can result in an increase in fluorescence. Equal volumes of LPS (40 μg per ml) and BC probe (10 μM) in 50 mM Tris buffer (pH 7.4) were mixed and added into a black 96-well microtiter plate (180 μl mixture per well), followed by the addition of different concentrations of A6, G6, or N6 (20 μl per well). Ampicillin and PMB were used as the negative and positive control, respectively. Changes in fluorescence were measured by a fluorescence spectrophotometry at room temperature (excitation: 580 nm, emission: 620 nm) and the BC displacement rate was calculated.

trypsin = assay type: in vitro ADME
pepsin = assay type: in vitro ADME
in vitro = conditions: mouse, serum, peptide remaining in serum, Mean, mice serum, 37 °C, RP-HPLC, mean of n = 3 (source data Fig. 2f)
Method: The thermal, pH and enzyme stability of A6 and G6 were evaluated against MDR E. coli CVCC195 using a previous method with minor revisions. The N6, A6, and G6 solutions were treated at different temperatures (20–100 °C) for 1 h, dissolved and incubated at different pH values (2–10) for 3 h, or incubated with trypsin or pepsin for 4 h. The inhibition zone diameters were measured after incubation at 37 °C for 18–24 h. The peptides were dissolved in H2O or mice serum at 37 °C to detect their serum stability and samples were removed at different time points to determine their residual activity by the inhibition zone or reverse-phase high-performance liquid chromatography (RP-HPLC) methods[62],[63].

[1] = Biodistribution of FITC-labeled peptides (in vivo fluorescence imaging); conditions: nude mice, FITC-labeled peptide 5 mg per kg intraperitoneally
Method: The nude mice were intraperitoneally injected with 5 mg per kg FITC-labeled A6, G6, and N6, respectively. Free FITC was used as a negative control.

E. coli CVCC195 = assay type: cell-based, Escherichia coli; conditions: for Fold change in MIC: E. coli CVCC195
Method: Bacterial resistance against the peptides was assessed via the MIC assays. […] After 16–18 h of incubation at 37 °C, cells from the second highest concentration showing visible growth were used to inoculate the subsequent cultures. The MIC values for drug passage cultures were obtained as described above. This process was repeated for 30 d.

Molecule: CC(C)[C@H](N)C(=O)N[C@H]1CSSC[C@@H](C(=O)N[C@@H](Cc2c[nH]cn2)C(=O)N[C@@H](CCCNC(=N)N)C(=O)N[C@@H](CCCNC(=N)N)C(=O)N[C@@H](C)C(=O)N[C@@H](CC(N)=O)C(=O)N[C@@H](CC(N)=O)C(=O)NCC(=O)N[C@H](C(=O)N[C@@H](CCCNC(=N)N)C(=O)N[C@H](C(=O)O)C(C)C)C(C)C)NC(=O)[C@H](CC(N)=O)NC(=O)[C@H](Cc2c[nH]c3ccccc23)NC(=O)[C@H](C)NC(=O)[C@H](Cc2ccccc2)NC(=O)CNC(=O)[C@H](CCCNC(=N)N)NC(=O)[C@H](Cc2ccc(O)cc2)NC(=O)[C@H](C(C)C)NC1=O [N6CK] (H-VCVYRGFAWNCHRRANNGVRV-OH; disulfide 2-11; N-terminus and C-terminus assumed)
- MICs against the tested bacterial strains (range) (tested bacterial strains): hardly any activity

Molecule: CC1(C)S[C@@H]2[C@H](NC(=O)[C@H](N)c3ccccc3)C(=O)N2[C@H]1C(=O)O [AMP, Ampicillin]
- BC displacement from LPS, Mean (E. coli LPS; 0.05 μM, LPS 40 μg per ml + BC 10 μM, 50 mM Tris pH 7.4, ex 580/em 620 nm): -0.1364
- BC displacement from LPS, Mean (E. coli LPS; 0.1 μM): -0.2089
- BC displacement from LPS, Mean (E. coli LPS; 0.5 μM): -1.734
- BC displacement from LPS, Mean (E. coli LPS; 1 μM): -1.14
- BC displacement from LPS, Mean (E. coli LPS; 5 μM): -3.263
- BC displacement from LPS, Mean (E. coli LPS; 10 μM): -3.845
- BC displacement from LPS, Mean (E. coli LPS; 50 μM): -4.033
- BC displacement ratio (E. coli LPS; 100 μM): did not displace BC probe
- BC displacement from LPS, Mean (E. coli LPS; 100 μM): -4.227

Molecule: CC(C)[C@@H]1NC(=O)CNC(=O)[C@H](CC(N)=O)NC(=O)[C@H](CCCNC(=N)N)NC(=O)[C@H](Cc2ccc(O)cc2)NC(=O)[C@H](C(C)C)NC(=O)[C@@H](NC(=O)[C@@H](NC(=O)[C@H](CC(N)=O)NC(=O)[C@H](Cc2c[nH]c3ccccc23)NC(=O)[C@H](C)NC(=O)[C@H](Cc2ccccc2)NC(=O)CN)C(C)C)CSSC[C@@H](C(=O)N[C@@H](Cc2cnc[nH]2)C(=O)N[C@@H](CCCNC(=N)N)C(=O)N[C@@H](CCCNC(=N)N)C(=O)N[C@@H](C)C(=O)N[C@@H](CC(N)=O)C(=O)O)NC(=O)[C@H](C(C)C)NC(=O)[C@H](CCCNC(=N)N)NC1=O [N6] (H-GFAWNVCVYRNGVRVCHRRAN-OH; disulfide 7-16)
- antibacterial activity after trypsin (inhibition zone diameter), Mean (trypsin): 0
- antibacterial activity after pepsin (inhibition zone diameter), Mean (pepsin): 1.866
- antibacterial activity without enzyme (inhibition zone diameter), Mean (pepsin): 2.004
- remaining at 1 h (in vitro; 1 h): 93%
- remaining at 2 h (in vitro; 2 h): 87.5%
- remaining at 4 h (in vitro; 4 h): 77.3%
- time after injection at which the fluorescence disappeared / peptide was excreted [1]: 72 h

Molecule: CNC(C)C1CCC(N)C(OC2C(N)CC(N)C(OC3OCC(C)(O)C(NC)C3O)C2O)O1 (centres unmarked) [Gentamicin, gentamicin]
- Fold change in MIC (E. coli CVCC195; Day 1 of serial passage): 1 fold
- Fold change in MIC (E. coli CVCC195; Day 2 of serial passage): 2 fold
- Fold change in MIC (E. coli CVCC195; Day 3 of serial passage): 2 fold
- Fold change in MIC (E. coli CVCC195; Day 4 of serial passage): 1 fold
- Fold change in MIC (E. coli CVCC195; Day 5 of serial passage): 2 fold
- Fold change in MIC (E. coli CVCC195; Day 6 of serial passage): 2 fold
- Fold change in MIC (E. coli CVCC195; Day 7 of serial passage): 4 fold
- Fold change in MIC (E. coli CVCC195; Day 8 of serial passage): 4 fold
- Fold change in MIC (E. coli CVCC195; Day 9 of serial passage): 4 fold
- Fold change in MIC (E. coli CVCC195; Day 10 of serial passage): 8 fold
- Fold change in MIC (E. coli CVCC195; Day 11 of serial passage): 8 fold
- Fold change in MIC (E. coli CVCC195; Day 12 of serial passage): 8 fold
- Fold change in MIC (E. coli CVCC195; Day 13 of serial passage): 8 fold
- Fold change in MIC (E. coli CVCC195; Day 14 of serial passage): 16 fold
- Fold change in MIC (E. coli CVCC195; Day 15 of serial passage): 16 fold
- Fold change in MIC (E. coli CVCC195; Day 16 of serial passage): 16 fold
- Fold change in MIC (E. coli CVCC195; Day 17 of serial passage): 16 fold
- Fold change in MIC (E. coli CVCC195; Day 18 of serial passage): 16 fold
- Fold change in MIC (E. coli CVCC195; Day 19 of serial passage): 16 fold
- Fold change in MIC (E. coli CVCC195; Day 20 of serial passage): 16 fold
- Fold change in MIC (E. coli CVCC195; Day 21 of serial passage): 16 fold
- Fold change in MIC (E. coli CVCC195; Day 22 of serial passage): 16 fold
- Fold change in MIC (E. coli CVCC195; Day 23 of serial passage): 16 fold
- Fold change in MIC (E. coli CVCC195; Day 24 of serial passage): 16 fold
- Fold change in MIC (E. coli CVCC195; Day 25 of serial passage): 16 fold
- Fold change in MIC (E. coli CVCC195; Day 26 of serial passage): 16 fold
- Fold change in MIC (E. coli CVCC195; Day 27 of serial passage): 16 fold
- Fold change in MIC (E. coli CVCC195; Day 28 of serial passage): 16 fold
- Fold change in MIC (E. coli CVCC195; Day 29 of serial passage): 16 fold
- Fold change in MIC (E. coli CVCC195; Day 30 of serial passage): 16 fold
- MIC elevation (E. coli CVCC195; at 7 d of serial passage): 3 fold
- MIC elevation (E. coli CVCC195; at 15 d of serial passage): 15 fold

Molecule: RVQGRWKVRASFFKEAAAKEAAAKVCVYRGFAWNCHRRANNGVRV (disulfide 26-35) [A6CK]
- MICs against the tested bacterial strains (range) (tested bacterial strains): hardly any activity
